The values below come from ChEMBL document CHEMBL3508693 (2016).

One data set has as its target CYP2D6 (Homo sapiens, UniProt P10635). The data set is described as follows: Inhibition of CYP2D6 in human liver microsomes from 10 healthy donors at 200 uM aliskiren (SPP100). Format: ADME, Microsome. Further details: conc 200 uM. The conditions noted are these: probe bufuralol (1'-hydroxylation). On the technique in general: Liver microsomes are vesicles of endoplasmic reticulum, rich in cytochrome P450 enzymes.

Data set [1] is described as follows: Terminal elimination half-life of SPP100 following single oral dose of SPP100 600 mg capsule studied in healthy human. It is filed as ADME, organism-based. The note with it: plasma.
Data set [2] in a line: Excretion (48h) of radioactivity in urine following oral administration of [14C] aliskiren hemifumarate at 100 mg.Kg-1 level in rat. It is filed as ADME, organism-based, Lister-Hooded. The conditions noted are these: in vivo.
The nature of data set [3]: Mean excretion of radioactivity (0-24h) in urine and faeces following single oral dose of 500 mg.Kg-1 [14C] aliskiren hemifumarate in mouse. Format: ADME, organism-based, TgRasH2, Urine/Feces. The note with it: in vivo.
Data set [4] in a line: Total excretion (0-72h) of radioactivity in urine, faeces and cage wash following single intravenous dose of 10 mg.Kg-1 [14C] aliskiren hemifumarate in mouse. It is filed as ADME, organism-based, TgRasH2, Urine/Feces. The conditions noted are these: in vivo.
Another data set has as its target Cytochrome P450 2D6 (Homo sapiens, UniProt P10635). The data set is described as follows: Activity of human recombinant CYP2D6 assessed as enzyme contribution (% total relative CL) towards [14C]SPP100 hemifumarate metabolism in human liver microsome. Format: ADME. The note with it: microsomes.

Sequence of Cytochrome P450 2D6 (P10635 whole entry): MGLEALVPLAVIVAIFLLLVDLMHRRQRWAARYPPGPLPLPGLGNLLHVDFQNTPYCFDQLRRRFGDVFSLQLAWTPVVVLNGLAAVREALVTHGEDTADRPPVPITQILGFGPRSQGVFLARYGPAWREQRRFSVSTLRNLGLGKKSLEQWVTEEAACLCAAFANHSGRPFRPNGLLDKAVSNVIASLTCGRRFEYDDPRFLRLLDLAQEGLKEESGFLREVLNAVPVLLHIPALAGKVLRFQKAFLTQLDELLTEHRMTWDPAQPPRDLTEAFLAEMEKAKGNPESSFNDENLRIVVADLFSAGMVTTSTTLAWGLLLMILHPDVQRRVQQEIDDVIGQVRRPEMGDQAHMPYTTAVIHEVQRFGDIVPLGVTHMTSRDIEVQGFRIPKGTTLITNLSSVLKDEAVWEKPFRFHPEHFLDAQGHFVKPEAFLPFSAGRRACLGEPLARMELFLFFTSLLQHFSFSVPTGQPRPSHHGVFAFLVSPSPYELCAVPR
Sequence of CYP2D6 (P10635 whole entry): as above

By inhibition is commonly meant the drop in the measured response relative to a control, in per cent. Higher therefore signals a response far below the control. In general, half-life refers to the time needed for the level to fall by half in the phase considered. High values mean slow decline, low ones rapid decline. In turn, `COCCCOc1cc(C[C@@H](C[C@H](N)[C@@H](O)C[C@H](C(=O)NCC(C)(C)C(N)=O)C(C)C)C(C)C)ccc1OC` yielded an inhibition at 200 µM against CYP2D6 of 32.9%. The same compound had a half-life in data set [1] of 34 h.
For the compound `COCCCOc1cc(C[C@@H](C[C@H](N)[C@@H](O)C[C@H](C(=O)NCC([14CH3])([14CH3])C(N)=O)C(C)C)C(C)C)ccc1OC.O=C(O)/C=C/C(=O)O`, the Radiolabel recovery worked out at 0.576% in data set [2], 69.96% in data set [3] and 93.38% in data set [4]. The Activity on Cytochrome P450 2D6 came out at 0.38%.
